Reference: patent US20240368163A1, “COMPOUNDS AND METHODS FOR MODULATING SPLICING” (REMIX THERAPEUTICS INC., priority 2021, published 2024)
Read-outs that look alike come from different tables or passages of the source.

What was measured:
Assay type in all cases: cell-based, human
[1] = test system: Target C; assay: Splicing RT-qPCR panel, Target C canonical junction (CJ) mRNA; conditions: Homo sapiens, read-out: Target C IC50 (decrease in CJ mRNA levels)
How it was run: (§1)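 First, A673 cells adhered 24 h, while K562 cells were plated directly. Next, compounds were added as an 11-point 3-fold series from 10 uM for 24 h. Finally, lysates went to RT-qPCR, with 2^(−ΔΔCt) values converted to percentage response.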

[2] = test system: HTT; assay: Splicing RT-qPCR assay, HTT mRNA canonical junction (CJ) and alternative junction (AJ); conditions: Homo sapiens; for AC50: increase in AJ mRNA
How it was run: as §1

[3] = test system: MYB; assay: Splicing RT-qPCR assay, MYB mRNA canonical junction (CJ) and alternative junction (AJ); conditions: Homo sapiens; for AC50: increase in AJ mRNA
How it was run: as §1

[4] = test system: MYB; assay: HiBiT protein abundance assay, MYB; conditions: Homo sapiens, K562, 24 h, modified K562 cells
How it was run: (§2)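 K562 cells with endogenous HiBiT-tagged target were treated 24 h at 37 °C with compound (10-point 3-fold dilution, top 10 μM final, DMSO ≤0.25%). Lytic LgBiT luminescence was normalized to unmodified K562 (baseline) and DMSO-treated tagged cells; IC50 interpolated at 50% from four-parameter logistic fit.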

[5] = test system: HTT; assay: HiBiT protein abundance assay, HTT; conditions: Homo sapiens, K562, 24 h, modified K562 cells
How it was run: as §2

[6] = test system: Target C; assay: HiBiT protein abundance assay, Target C; conditions: Homo sapiens, K562, 24 h, modified K562 cells
How it was run: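 HiBiT knock-in K562-derived cells, 10000 cells/well, were treated 24 h at 37 °C with a 10-point 3-fold dilution series (top 10 μM final, DMSO ≤0.25%). Lytic HiBiT luminescence was normalized to unmodified K562 and DMSO controls; IC50 was interpolated at 50% from a four-parameter logistic fit.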

[7] = test system: SMN2; assay: Splicing RT-qPCR panel, SMN2 canonical junction (CJ) mRNA; conditions: Homo sapiens, read-out: SMN2 IC50 (decrease in CJ mRNA levels)
How it was run: as §1

[8] = RT-qPCR panel, canonical junction mRNA, compound concentration having 50% response in CJ decrease
[9] = 24 h, decrease in CJ mRNA, A673 or K562 cells, 24 hours treatment, RT-qPCR, read-out: HTT CJ IC50
[10] = 24 h, A673 or K562 cells, 24 hours treatment, RT-qPCR
[11] = RT-qPCR panel, canonical junction mRNA, compound concentration having 50% response in CJ decrease, read-out: HTT IC50 (decrease in CJ mRNA levels)
[12] = 24 h, decrease in CJ mRNA, A673 or K562 cells, 24 hours treatment, RT-qPCR, read-out: MYB CJ IC50
[13] = RT-qPCR panel, canonical junction mRNA, compound concentration having 50% response in CJ decrease, read-out: MYB IC50 (decrease in CJ mRNA levels)
[14] = gene panel, CJ qPCR, protocol of Example 142
[15] = gene panel, CJ qPCR, protocol of Example 142, read-out: HTT IC50 (decrease in CJ mRNA levels)
[16] = gene panel, CJ qPCR, protocol of Example 142, read-out: MYB IC50 (decrease in CJ mRNA levels)

Row | IC50 [1, 8] [µM] | IC50 [2, 9] [µM] | IC50 [2, 11] [µM] | IC50 [3, 12] [µM] | IC50 [3, 13] [µM] | IC50 ([4]; Table 13A) [µM] | IC50 ([5]; Table 13A) [µM] | IC50 ([6]; Table 13A) [µM] | IC50 [7, 8] [µM] | Compound | AC50 [2, 10] [µM] | AC50 [3, 10] [µM] | IC50 [1, 14] [µM] | IC50 [2, 15] [µM] | IC50 [3, 16] [µM] | IC50 ([4]; Table 13B) [µM] | IC50 ([5]; Table 13B) [µM] | IC50 ([6]; Table 13B) [µM] | IC50 [7, 14] [µM]
1 | > 10 | > 10 | > 10 | > 10 | > 10 | 1 to 10 | 1 to 10 | > 10 | 0.1 to 1 | CN(C)[C@H]1[C@@H]2CN(c3ccc(-c4ccc(-c5cn[nH]c5)c5ncsc45)nn3)C[C@@H]21 [Compound 285] | 1 to 10 | > 10 |  |  |  |  |  |  | 
2 | > 10 | > 10 | > 10 | > 10 | > 10 | 1 to 10 | 1 to 10 | 1 to 10 | 1 to 10 | CN(C)[C@H]1[C@@H]2CN(c3ccc(-c4ccc(-c5cn[nH]c5)c5cn[nH]c45)nn3)C[C@@H]21 [Compound 303] | > 10 | > 10 |  |  |  |  |  |  | 
3 | > 10 | > 10 | > 10 | > 10 | > 10 | > 10 | > 10 | > 10 | > 10 | c1nc2c(-c3cn[nH]c3)ccc(-c3ccc(N4CCC5(CC4)CNC5)nn3)c2s1 [Compound 188] | > 10 | > 10 |  |  |  |  |  |  | 
4 | > 10 | > 10 | > 10 | > 10 | > 10 | 1 to 10 | 1 to 10 | > 10 | 1 to 10 | c1n[nH]cc1-c1ccc(-c2ccc(N3CC[C@@]45CCN[C@@H]4CC[C@@H]35)nn2)c2[nH]ncc12 [Compound 304] | > 10 | > 10 |  |  |  |  |  |  | 
5 | > 10 | > 10 | > 10 | > 10 | > 10 | > 10 | > 10 | > 10 | > 10 | c1n[nH]cc1-c1ccc(-c2ccc(N3CCC4(CCNCC4)C3)nn2)c2[nH]ncc12 [Compound 239] | > 10 | > 10 |  |  |  |  |  |  | 

More lines, now with the values behind:

Row | Compound | IC50 [1, 8] [µM] | IC50 [2, 9] [µM] | IC50 [2, 11] [µM] | IC50 [3, 12] [µM] | IC50 [3, 13] [µM] | IC50 ([4]; Table 13A) [µM] | IC50 ([5]; Table 13A) [µM] | IC50 ([6]; Table 13A) [µM] | IC50 [7, 8] [µM] | AC50 [2, 10] [µM] | AC50 [3, 10] [µM] | IC50 [1, 14] [µM] | IC50 [2, 15] [µM] | IC50 [3, 16] [µM] | IC50 ([4]; Table 13B) [µM] | IC50 ([5]; Table 13B) [µM] | IC50 ([6]; Table 13B) [µM] | IC50 [7, 14] [µM]
6 | CN(c1ccc(-c2ccc(-c3cnn(C)c3)c3scnc23)nn1)C1CC(C)(C)NC(C)(C)C1 [Compound 175] | > 10 | > 10 | > 10 | > 10 | > 10 | 1 to 10 | 1 to 10 | 1 to 10 | 1 to 10 | 1 to 10 | 1 to 10 |  |  |  |  |  |  | 
7 | COc1nc(-c2ccc(N(C)C3CC(C)(C)NC(C)(C)C3)nn2)ccc1-n1cccn1 [Compound 935] |  |  |  |  |  |  |  |  |  |  |  | 0.1 to 1 | 0.1 to 1 | 0.1 to 1 | 0.1 to 1 | 0.1 to 1 | 0.1 to 1 | 0.1 to 1
8 | CN(c1ccc(-c2ccc(-n3cccn3)c3[nH]ncc23)nn1)C1CC(C)(C)NC(C)(C)C1 [Compound 559] | 1 to 10 |  | 0.1 to 1 |  | 1 to 10 | 0.1 to 1 | 0.1 to 1 | 0.1 to 1 | 0.1 to 1 |  |  |  |  |  |  |  |  | 
9 | COc1nc(-c2ccc(N(C)[C@@H]3C[C@H]4CC[C@@H](C3)N4)nn2)cnc1-c1cn[nH]c1 [Compound 928] |  |  |  |  |  |  |  |  |  |  |  | 0.1 to 1 | 0.1 to 1 | 0.1 to 1 | 0.1 to 1 | 0.1 to 1 | 0.1 to 1 | < 0.1
10 | COc1nc(-c2ccc(N(C)[C@@H]3C[C@H]4CC[C@@H](C3)N4)nn2)ccc1-c1cn(C)nn1 [Compound 945] |  |  |  |  |  |  |  |  |  |  |  | 1 to 10 | 0.1 to 1 | 1 to 10 | 0.1 to 1 | 0.1 to 1 | 0.1 to 1 | < 0.1
11 | c1nc2c(-c3cn[nH]c3)ccc(-c3cnc(N4CCN5CCCC5C4)nn3)c2s1 (centres unmarked) [Compound 565] | > 10 |  | 1 to 10 |  | 1 to 10 | 1 to 10 | 1 to 10 | 1 to 10 | 1 to 10 |  |  |  |  |  |  |  |  | 
